Measurements from US8563540B2, “Pyrido[3,2-d]pyrimidine PI3K delta inhibitor compounds and methods of use” (Genetech, Inc., priority 2010, dated 2013).

Legend:
p110 delta = target: T1, p110 delta (Homo sapiens, UniProt O00329); assay: PI3K Isoform Inhibition Assay, p110 delta; type: biochemical; settings: PI3K isoform inhibition assay of Example 901
T1 construct: purchased Upstate Group, Millipore; Dundee, UK
Procedure: (§1) PI3K enzymatic activity was assayed by measuring the amount of product phosphatidylinositol […] (PIP3) formed from substrate 4,5 phosphatidylinositol 4,5-phosphate (PIP2) using a fluorescence polarization displacement assay. The decrease in fluorescence polarization of a fluorescent PIP3 probe is measured as it is displaced from a PIP3-binding protein GRP-1 detector by PI3K-catalyzed product. […] The kinase reactions were initiated by the addition of 40 ng/mL p110α/p85α, 300 ng/mL p110β/p85α, 40 ng/mL p110γ, or 40 ng/mL […] (Upstate Group, Millipore; Dundee, UK), and 10 μM PIP2 (Echelon Biosciences) to the wells. […] After 60 minutes of incubation at room temperature to allow equilibration of labeled and unlabeled PIP3 binding, the parallel and perpendicular components of the fluorescence emissions from each sample were measured at an excitation wavelength of 530 nm and an emission wavelength of 590 nm using an Envision fluorescent plate reader with a rhodamine filter (PerkinElmer Life and Analytical Sciences; Wellesley, Mass.). The assay is capable of detecting 0.1-2.0 μM PIP3 product. The IC50 values were obtained by fitting the dose-dependent inhibition data to a 4-parameter equation using Assay Explorer software (MDL, San Ramon, Calif.).
(§2) The Formula I compound was serially diluted in 100% DMSO. The kinase reaction was incubated for 1 h at room temperature, and the reaction was terminated by the addition of PBS. IC50 values were subsequently determined using sigmoidal dose-response curve fit (variable slope).
The four Class I PI 3-kinases are cloned into baculovirus vectors as follows: […]

p110 alpha = target: T2, p110 alpha (Homo sapiens, UniProt P42336); assay: PI3K Isoform Inhibition Assay, p110 alpha (delta/alpha selectivity); settings: ratio of biochemical IC50 values
T2 construct: purchased Upstate Group, Millipore; Dundee, UK
Procedure: as §1, §2
The same protocol may be used to establish IC50 values for p110α (alpha) PI3K binding. […]

T1 sequence (O00329 whole entry, canonical isoform): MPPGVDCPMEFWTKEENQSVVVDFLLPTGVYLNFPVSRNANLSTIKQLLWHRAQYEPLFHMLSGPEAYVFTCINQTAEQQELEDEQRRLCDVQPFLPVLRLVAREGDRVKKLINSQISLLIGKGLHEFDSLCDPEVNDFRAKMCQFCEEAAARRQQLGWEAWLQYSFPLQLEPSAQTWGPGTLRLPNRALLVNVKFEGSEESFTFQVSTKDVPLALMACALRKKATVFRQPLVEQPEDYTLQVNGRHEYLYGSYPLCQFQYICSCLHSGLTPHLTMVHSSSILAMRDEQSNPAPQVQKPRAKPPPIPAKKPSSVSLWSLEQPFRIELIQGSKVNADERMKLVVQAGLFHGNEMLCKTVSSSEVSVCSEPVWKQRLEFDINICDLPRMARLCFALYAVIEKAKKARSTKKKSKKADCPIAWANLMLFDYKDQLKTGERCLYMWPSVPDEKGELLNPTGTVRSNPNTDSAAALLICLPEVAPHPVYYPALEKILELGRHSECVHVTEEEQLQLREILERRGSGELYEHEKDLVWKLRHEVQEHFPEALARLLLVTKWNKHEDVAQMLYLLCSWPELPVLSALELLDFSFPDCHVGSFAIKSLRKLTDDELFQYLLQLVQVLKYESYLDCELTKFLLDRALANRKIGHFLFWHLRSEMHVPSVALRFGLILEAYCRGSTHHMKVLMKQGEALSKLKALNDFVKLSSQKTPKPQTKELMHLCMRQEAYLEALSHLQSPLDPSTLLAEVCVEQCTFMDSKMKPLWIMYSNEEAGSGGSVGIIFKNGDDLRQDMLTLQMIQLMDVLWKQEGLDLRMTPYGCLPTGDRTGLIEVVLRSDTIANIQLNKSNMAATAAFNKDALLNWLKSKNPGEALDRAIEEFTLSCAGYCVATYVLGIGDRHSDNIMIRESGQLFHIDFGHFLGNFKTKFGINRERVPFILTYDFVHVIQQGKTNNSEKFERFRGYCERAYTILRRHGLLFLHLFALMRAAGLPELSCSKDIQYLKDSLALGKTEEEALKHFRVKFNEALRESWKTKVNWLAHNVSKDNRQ
T1 sequence (P27986 whole entry partner, canonical isoform): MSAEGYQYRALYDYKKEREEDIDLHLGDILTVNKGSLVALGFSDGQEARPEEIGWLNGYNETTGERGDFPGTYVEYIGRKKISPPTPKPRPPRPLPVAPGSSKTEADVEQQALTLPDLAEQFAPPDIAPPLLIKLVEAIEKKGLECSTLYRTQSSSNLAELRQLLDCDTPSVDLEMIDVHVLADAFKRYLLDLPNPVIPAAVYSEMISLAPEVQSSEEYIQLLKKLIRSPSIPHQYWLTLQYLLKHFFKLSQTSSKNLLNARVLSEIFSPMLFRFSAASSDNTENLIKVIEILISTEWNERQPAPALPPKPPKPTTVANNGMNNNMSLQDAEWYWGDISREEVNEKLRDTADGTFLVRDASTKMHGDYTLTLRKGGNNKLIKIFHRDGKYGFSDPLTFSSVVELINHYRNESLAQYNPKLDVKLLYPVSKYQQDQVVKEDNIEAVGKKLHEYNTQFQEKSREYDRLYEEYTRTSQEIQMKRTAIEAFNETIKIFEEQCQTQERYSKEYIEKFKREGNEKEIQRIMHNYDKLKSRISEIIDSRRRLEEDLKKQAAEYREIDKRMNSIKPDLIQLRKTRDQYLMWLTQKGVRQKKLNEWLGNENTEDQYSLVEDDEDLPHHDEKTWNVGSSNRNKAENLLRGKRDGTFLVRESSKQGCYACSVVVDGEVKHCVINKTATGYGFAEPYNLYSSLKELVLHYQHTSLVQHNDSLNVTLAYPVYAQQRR
T2 sequence (P42336 whole entry, canonical isoform): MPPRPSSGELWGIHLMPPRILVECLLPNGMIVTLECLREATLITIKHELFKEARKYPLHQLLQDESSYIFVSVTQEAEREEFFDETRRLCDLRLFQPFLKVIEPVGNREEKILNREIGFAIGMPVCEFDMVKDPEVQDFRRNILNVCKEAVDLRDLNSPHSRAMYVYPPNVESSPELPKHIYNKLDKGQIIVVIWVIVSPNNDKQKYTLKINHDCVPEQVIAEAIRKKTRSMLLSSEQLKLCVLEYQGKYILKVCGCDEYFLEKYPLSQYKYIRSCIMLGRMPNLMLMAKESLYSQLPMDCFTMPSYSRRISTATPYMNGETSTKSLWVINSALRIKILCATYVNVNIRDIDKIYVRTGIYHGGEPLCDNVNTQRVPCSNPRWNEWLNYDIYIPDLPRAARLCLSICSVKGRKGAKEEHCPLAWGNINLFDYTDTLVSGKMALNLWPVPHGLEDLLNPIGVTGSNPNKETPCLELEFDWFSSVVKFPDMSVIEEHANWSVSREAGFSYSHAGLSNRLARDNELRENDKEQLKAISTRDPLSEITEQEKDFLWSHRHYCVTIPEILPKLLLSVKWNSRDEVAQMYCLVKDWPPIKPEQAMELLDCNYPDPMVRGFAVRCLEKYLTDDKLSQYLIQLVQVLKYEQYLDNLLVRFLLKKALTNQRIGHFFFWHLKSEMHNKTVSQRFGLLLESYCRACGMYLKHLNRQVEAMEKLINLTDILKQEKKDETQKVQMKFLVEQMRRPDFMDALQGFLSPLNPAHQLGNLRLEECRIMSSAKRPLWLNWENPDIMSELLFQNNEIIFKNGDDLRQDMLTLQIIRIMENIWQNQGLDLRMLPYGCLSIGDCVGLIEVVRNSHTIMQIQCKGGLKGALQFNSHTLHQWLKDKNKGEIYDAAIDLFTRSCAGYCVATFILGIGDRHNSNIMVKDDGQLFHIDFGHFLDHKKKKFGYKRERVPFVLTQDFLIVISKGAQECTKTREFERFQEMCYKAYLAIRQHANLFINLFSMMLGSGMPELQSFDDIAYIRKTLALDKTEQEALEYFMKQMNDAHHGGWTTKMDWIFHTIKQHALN
T2 sequence (P27986 whole entry partner, canonical isoform): as the sequence (P27986 whole entry partner, canonical isoform) above

Row | Structure (SMILES) | IC50 (p110 delta) [nM] | IC50 p110 alpha/IC50 p110 delta (p110 alpha)
1 | CO[C@H](C)c1nc2ccccc2n1-c1nc(N2CCOCC2)c2nc(CN3CCC(C(C)(C)O)CC3)ccc2n1 [Compound 115, (R)-2-(1-((2-(2-(1-methoxyethyl)-1H-benzo[d]imidazol-1-yl)-4-morpholinopyrido[3,2-d]pyrimidin-6-yl)methyl)piperidin-4-yl)propan-2-ol] | 7.11 | 58
2 | Cc1nc(N)ccc1-c1nc(N2CCOCC2)c2nc(CN3CCC(C(C)(C)O)CC3)ccc2n1 [Compound 116, 2-(1-((2-(6-amino-2-methylpyridin-3-yl)-4-morpholinopyrido[3,2-d]pyrimidin-6-yl)methyl)piperidin-4-yl)propan-2-ol] | 9.33 | 43
3 | CC(C)(C(N)=O)N1CCN(Cc2ccc3nc(-c4ccc(N)nc4)nc(N4CCOCC4)c3n2)CC1 [Compound 124, 2-(4-((2-(6-aminopyridin-3-yl)-4-morpholinopyrido[3,2-d]pyrimidin-6-yl)methyl)piperazin-1-yl)-2-methylpropanamide] | 2.03 | 14
4 | CC(C)(O)C1CCN(Cc2ccc3nc(-n4c(C(F)(F)F)nc5ccccc54)nc(N4CCOCC4)c3n2)CC1 [Compound 156, 2-(1-((4-morpholino-2-(2-(trifluoromethyl)-1H-benzo[d]imidazol-1-yl)pyrido[3,2-d]pyrimidin-6-yl)methyl)piperidin-4-yl)propan-2-ol] | 2.86 | 42
5 | CC(C)n1ncnc1-c1ccc2nc(-c3c(F)ccc4[nH]ccc34)nc(N3CCOCC3)c2n1 [Compound 141, 4-(2-(5-fluoro-1H-indol-4-yl)-6-(1-isopropyl-1H-1,2,4-triazol-5-yl)pyrido[3,2-d]pyrimidin-4-yl)morpholine] | 63.6 | 9.4
6 | CC(C)(O)C1CCN(Cc2ccc3nc(-n4c(C5CC5)nc5ccccc54)nc(N4CCOCC4)c3n2)CC1 [Compound 102, 2-(1-((2-(2-cyclopropyl-1H-benzo[d]imidazol-1-yl)-4-morpholinopyrido[3,2-d]pyrimidin-6-yl)methyl)piperidin-4-yl)propan-2-ol] | 7.94 | 71
7 | Nc1ncc(-c2nc(N3CCOCC3)c3ncc(C4CC4)cc3n2)cn1 [Compound 198, 5-(7-cyclopropyl-4-morpholinopyrido[3,2-d]pyrimidin-2-yl)pyrimidin-2-amine] | 3.88 | 0.27
8 | Cc1cc(-c2nc(N3CCOCC3)c3nc(CN4CCC(C(C)(C)O)CC4)ccc3n2)cnc1N [Compound 132, 2-(1-((2-(6-amino-5-methylpyridin-3-yl)-4-morpholinopyrido[3,2-d]pyrimidin-6-yl)methyl)piperidin-4-yl)propan-2-ol] | 22.4 | 10
9 | CC1(COc2ccc3nc(-c4cnc(N)nc4)nc(N4CCOCC4)c3n2)COC1 [Compound 188, 5-(6-((3-methyloxetan-3-yl)methoxy)-4-morpholinopyrido[3,2-d]pyrimidin-2-yl)pyrimidin-2-amine] | 8.69 | 0.18
10 | COC(=O)C(C)(C)N1CC(Cc2ccc3nc(-n4c(C(C)C)nc5ccccc54)nc(N4CCOCC4)c3n2)C1 [Compound 117, methyl 2-(3-((2-(2-isopropyl-1H-benzo[d]imidazol-1-yl)-4-morpholinopyrido[3,2-d]pyrimidin-6-yl)methyl)azetidin-1-yl)-2-methylpropanoate] | 5.09 | 37
11 | CC(C)(O)CNCc1ccc2nc(-c3c(F)ccc4[nH]ccc34)nc(N3CCOCC3)c2n1 [Compound 143, 1-((2-(5-fluoro-1H-indol-4-yl)-4-morpholinopyrido[3,2-d]pyrimidin-6-yl)methylamino)-2-methylpropan-2-ol] | 35.9 | 58
12 | CCc1nc2ccccc2n1-c1nc(N2CCOCC2)c2nc(CN3CC(N4CCNC(=O)C4)C3)ccc2n1 [Compound 134, 4-(1-((2-(2-ethyl-1H-benzo[d]imidazol-1-yl)-4-morpholinopyrido[3,2-d]pyrimidin-6-yl)methyl)azetidin-3-yl)piperazin-2-one] | 3.56 | 10.9
13 | COC1CN(c2cnc3c(N4CCOCC4)nc(-c4cnc(N)nc4)nc3c2)C1 [Compound 200, 5-(7-(3-methoxyazetidin-1-yl)-4-morpholinopyrido[3,2-d]pyrimidin-2-yl)pyrimidin-2-amine] | 716 | 0.97
14 | Fc1ccc2[nH]ccc2c1-c1nc(N2CCOCC2)c2nc(CN3CC(N4CCOCC4)C3)ccc2n1 [Compound 126, 4-(1-((2-(5-fluoro-1H-indol-4-yl)-4-morpholinopyrido[3,2-d]pyrimidin-6-yl)methyl)azetidin-3-yl)morpholine] | 1.14 | 257
15 | Fc1ccc2[nH]ccc2c1-c1nc(N2CCOCC2)c2nc(CN3CC(N4CCC(F)(F)CC4)C3)ccc2n1 [Compound 125, 4-(6-((3-(4,4-difluoropiperidin-1-yl)azetidin-1-yl)methyl)-2-(5-fluoro-1H-indol-4-yl)pyrido[3,2-d]pyrimidin-4-yl)morpholine] | 1.52 | 246
16 | CC(C)(C(N)=O)N1CCN(Cc2ccc3nc(-c4c(F)ccc5[nH]ccc45)nc(N4CCOCC4)c3n2)CC1 [Compound 121, 2-(4-((2-(5-fluoro-1H-indol-4-yl)-4-morpholinopyrido[3,2-d]pyrimidin-6-yl)methyl)piperazin-1-yl)-2-methylpropanamide] | 1.29 | 203
17 | CC(C)c1nc2ccccc2n1-c1nc(N2CCOCC2)c2nc(CN3CC(C4CCOCC4)C3)ccc2n1 [Compound 113, 4-(2-(2-isopropyl-1H-benzo[d]imidazol-1-yl)-6-((3-(tetrahydro-2H-pyran-4-yl)azetidin-1-yl)methyl)pyrido[3,2-d]pyrimidin-4-yl)morpholine] | 8.52 | 28.4
18 | CC(C)(C(N)=O)N1CCN(Cc2ccc3nc(-c4c[nH]c5ccccc45)nc(N4CCOCC4)c3n2)CC1 [Compound 123, 2-(4-((2-(1H-indol-3-yl)-4-morpholinopyrido[3,2-d]pyrimidin-6-yl)methyl)piperazin-1-yl)-2-methylpropanamide] | 4.48 | 55
19 | CC(C)Oc1cnc2c(N3CCOCC3)nc(-c3cnc(N)nc3)nc2c1 [Compound 201, 5-(7-isopropoxy-4-morpholinopyrido[3,2-d]pyrimidin-2-yl)pyrimidin-2-amine] | 4.91 | 0.34
20 | CC(F)(F)c1nc2ccccc2n1-c1nc(N2CCOCC2)c2nc(CN3CCC(C(C)(C)O)CC3)ccc2n1 [Compound 120, 2-(1-((2-(2-(1,1-difluoroethyl)-1H-benzo[d]imidazol-1-yl)-4-morpholinopyrido[3,2-d]pyrimidin-6-yl)methyl)piperidin-4-yl)propan-2-ol] | 2.31 | 45
21 | Cc1cnc2c(N3CCOCC3)nc(-c3cnc(N)nc3)nc2c1 [Compound 197, 5-(7-methyl-4-morpholinopyrido[3,2-d]pyrimidin-2-yl)pyrimidin-2-amine] | 5.72 | 0.20
22 | CC(C)c1nc2ccccc2n1-c1nc(N2CCOCC2)c2nc(C(=O)N3CCC(C(C)(C)O)CC3)ccc2n1 [Compound 119, (4-(2-hydroxypropan-2-yl)piperidin-1-yl)(2-(2-isopropyl-1H-benzo[d]imidazol-1-yl)-4-morpholinopyrido[3,2-d]pyrimidin-6-yl)methanone] | 87.8 | 15
23 | Cc1nc2ccccc2n1-c1nc(N2CCOCC2)c2nc(CN3CCC(C(C)(C)O)CC3)ccc2n1 [Compound 101, 2-(1-((2-(2-methyl-1H-benzo[d]imidazol-1-yl)-4-morpholinopyrido[3,2-d]pyrimidin-6-yl)methyl)piperidin-4-yl)propan-2-ol] | 12.5 | 33
24 | CC(C)(O)C1CCN(Cc2ccc3nc(-c4cccc5[nH]ncc45)nc(N4CCOCC4)c3n2)CC1 [Compound 110, 2-(1-((2-(1H-indazol-4-yl)-4-morpholinopyrido[3,2-d]pyrimidin-6-yl)methyl)piperidin-4-yl)propan-2-ol] | 6.32 | 21
25 | CC(C)(O)C1CCN(Cc2ccc3nc(-c4ccc(N)nc4)nc(N4CCOCC4)c3n2)CC1 [Compound 122, 2-(1-((2-(6-aminopyridin-3-yl)-4-morpholinopyrido[3,2-d]pyrimidin-6-yl)methyl)piperidin-4-yl)propan-2-ol] | 5.42 | 15
26 | Fc1ccc2[nH]ccc2c1-c1nc(N2CCOCC2)c2nc(CN3CC(C4CCOCC4)C3)ccc2n1 [Compound 111, 4-(2-(5-fluoro-1H-indol-4-yl)-6-((3-(tetrahydro-2H-pyran-4-yl)azetidin-1-yl)methyl)pyrido[3,2-d]pyrimidin-4-yl)morpholine] | 5.32 | 281
